# Results as given in patent publication US20260130395A1, “Water Dispersible Botanical Compositions” (Aquila Black Limited, priority 2021, published 2026).
# Experiment: Stability of cannabinoid compounds and Vitamin E components in Beverage 2 (AB Red) by LCMSMS
# Assay type: physicochemical
compound,measurement,setting,value
"C=C(C)[C@@H]1CCC(C)=C[C@H]1c1c(O)cc(CCCCC)c(C(=O)O)c1O [CBDA, cannabidiolic acid]",Stability of Plant-Derived Cannabinoid Compounds in AB Red,"stored at 8° C., 0 days",1.68 µg/mL
same,Stability of Plant-Derived Cannabinoid Compounds in AB Red,"stored at 8° C., 1 days",1.69 µg/mL
same,Stability of Plant-Derived Cannabinoid Compounds in AB Red,"stored at 8° C., 2 days",1.66 µg/mL
same,Stability of Plant-Derived Cannabinoid Compounds in AB Red,"stored at 8° C., 3 days",1.64 µg/mL
same,Stability of Plant-Derived Cannabinoid Compounds in AB Red,"stored at 8° C., 5 days",1.67 µg/mL
same,Stability of Plant-Derived Cannabinoid Compounds in AB Red,"stored at 8° C., 8 days",1.68 µg/mL
same,Stability of Plant-Derived Cannabinoid Compounds in AB Red,"stored at 8° C., 9 days",1.65 µg/mL
same,Stability of Plant-Derived Cannabinoid Compounds in AB Red,"stored at 8° C., 10 days",1.67 µg/mL
same,Stability of Plant-Derived Cannabinoid Compounds in AB Red,"stored at 8° C., 11 days",1.65 µg/mL
same,Stability of Plant-Derived Cannabinoid Compounds in AB Red,"stored at 8° C., 12 days",1.68 µg/mL
same,Stability of Plant-Derived Cannabinoid Compounds in AB Red,"stored at 8° C., 15 days",1.67 µg/mL
same,Stability of Plant-Derived Cannabinoid Compounds in AB Red,"stored at 8° C., 16 days",1.69 µg/mL
same,Stability of Plant-Derived Cannabinoid Compounds in AB Red,"stored at 8° C., 17 days",1.64 µg/mL
same,Stability of Plant-Derived Cannabinoid Compounds in AB Red,"stored at 8° C., 18 days",1.65 µg/mL
same,Stability of Plant-Derived Cannabinoid Compounds in AB Red,"stored at 8° C., 19 days",1.68 µg/mL
same,Stability of Plant-Derived Cannabinoid Compounds in AB Red,"stored at 8° C., 22 days",1.70 µg/mL
same,Stability of Plant-Derived Cannabinoid Compounds in AB Red,"stored at 8° C., 23 days",1.63 µg/mL
same,Stability of Plant-Derived Cannabinoid Compounds in AB Red,"stored at 8° C., 24 days",1.70 µg/mL
same,Stability of Plant-Derived Cannabinoid Compounds in AB Red,"stored at 8° C., 25 days",1.63 µg/mL
same,Stability of Plant-Derived Cannabinoid Compounds in AB Red,"stored at 8° C., 26 days",1.63 µg/mL
same,Stability of Plant-Derived Cannabinoid Compounds in AB Red,"stored at 8° C., 29 days",1.66 µg/mL
same,Stability of Plant-Derived Cannabinoid Compounds in AB Red,"stored at 8° C., 30 days",1.70 µg/mL
same,Stability of Plant-Derived Cannabinoid Compounds in AB Red,"stored at 8° C., 60 days",1.66 µg/mL
same,Stability of Plant-Derived Cannabinoid Compounds in AB Red,"stored at 8° C., 90 days",1.68 µg/mL
same,Stability of Plant-Derived Cannabinoid Compounds in AB Red,"stored at 8° C., 120 days",1.65 µg/mL
same,Stability of Plant-Derived Cannabinoid Compounds in AB Red,"stored at 8° C., 150 days",1.66 µg/mL
same,Stability of Plant-Derived Cannabinoid Compounds in AB Red,"stored at 8° C., 180 days",1.60 µg/mL
same,Stability of Plant-Derived Cannabinoid Compounds in AB Red,"stored at 8° C., 210 days",1.65 µg/mL
same,Stability of Plant-Derived Cannabinoid Compounds in AB Red,"stored at 8° C., 240 days",1.66 µg/mL
same,Stability of Plant-Derived Cannabinoid Compounds in AB Red,"stored at 8° C., 270 days",1.63 µg/mL
same,Stability of Plant-Derived Cannabinoid Compounds in AB Red,"stored at 8° C., 300 days",1.65 µg/mL
same,Stability of Plant-Derived Cannabinoid Compounds in AB Red,"stored at 8° C., 330 days",1.60 µg/mL
same,Stability of Plant-Derived Cannabinoid Compounds in AB Red,"stored at 8° C., 360 days",1.62 µg/mL
same,Stability of Plant-Derived Cannabinoid Compounds in AB Red,"stored at 8° C., 390 days",1.63 µg/mL
same,Stability of Plant-Derived Cannabinoid Compounds in AB Red,"stored at 8° C., 420 days",1.63 µg/mL
same,Stability of Plant-Derived Cannabinoid Compounds in AB Red,"stored at 8° C., 450 days",1.63 µg/mL
same,Stability of Plant-Derived Cannabinoid Compounds in AB Red,"stored at 8° C., 480 days",1.60 µg/mL
same,Stability of Plant-Derived Cannabinoid Compounds in AB Red,"stored at 8° C., 510 days",1.55 µg/mL
same,Stability of Plant-Derived Cannabinoid Compounds in AB Red,"stored at 8° C., 540 days",1.55 µg/mL
same,Stability of Plant-Derived Cannabinoid Compounds in AB Red,"stored at 8° C., 570 days",1.54 µg/mL
same,Stability of Plant-Derived Cannabinoid Compounds in AB Red,"stored at 21-25° C., 0 days",1.68 µg/mL
same,Stability of Plant-Derived Cannabinoid Compounds in AB Red,"stored at 21-25° C., 1 days",1.70 µg/mL
same,Stability of Plant-Derived Cannabinoid Compounds in AB Red,"stored at 21-25° C., 2 days",1.65 µg/mL
same,Stability of Plant-Derived Cannabinoid Compounds in AB Red,"stored at 21-25° C., 3 days",1.64 µg/mL
same,Stability of Plant-Derived Cannabinoid Compounds in AB Red,"stored at 21-25° C., 5 days",1.69 µg/mL
same,Stability of Plant-Derived Cannabinoid Compounds in AB Red,"stored at 21-25° C., 8 days",1.64 µg/mL
same,Stability of Plant-Derived Cannabinoid Compounds in AB Red,"stored at 21-25° C., 9 days",1.63 µg/mL
same,Stability of Plant-Derived Cannabinoid Compounds in AB Red,"stored at 21-25° C., 10 days",1.61 µg/mL
same,Stability of Plant-Derived Cannabinoid Compounds in AB Red,"stored at 21-25° C., 11 days",1.64 µg/mL
same,Stability of Plant-Derived Cannabinoid Compounds in AB Red,"stored at 21-25° C., 12 days",1.70 µg/mL
same,Stability of Plant-Derived Cannabinoid Compounds in AB Red,"stored at 21-25° C., 15 days",1.64 µg/mL
same,Stability of Plant-Derived Cannabinoid Compounds in AB Red,"stored at 21-25° C., 16 days",1.67 µg/mL
same,Stability of Plant-Derived Cannabinoid Compounds in AB Red,"stored at 21-25° C., 17 days",1.63 µg/mL
same,Stability of Plant-Derived Cannabinoid Compounds in AB Red,"stored at 21-25° C., 18 days",1.65 µg/mL
same,Stability of Plant-Derived Cannabinoid Compounds in AB Red,"stored at 21-25° C., 19 days",1.70 µg/mL
same,Stability of Plant-Derived Cannabinoid Compounds in AB Red,"stored at 21-25° C., 22 days",1.66 µg/mL
same,Stability of Plant-Derived Cannabinoid Compounds in AB Red,"stored at 21-25° C., 23 days",1.63 µg/mL
same,Stability of Plant-Derived Cannabinoid Compounds in AB Red,"stored at 21-25° C., 24 days",1.65 µg/mL
same,Stability of Plant-Derived Cannabinoid Compounds in AB Red,"stored at 21-25° C., 25 days",1.64 µg/mL
same,Stability of Plant-Derived Cannabinoid Compounds in AB Red,"stored at 21-25° C., 26 days",1.67 µg/mL
same,Stability of Plant-Derived Cannabinoid Compounds in AB Red,"stored at 21-25° C., 29 days",1.62 µg/mL
same,Stability of Plant-Derived Cannabinoid Compounds in AB Red,"stored at 21-25° C., 30 days",1.68 µg/mL
same,Stability of Plant-Derived Cannabinoid Compounds in AB Red,"stored at 21-25° C., 60 days",1.59 µg/mL
same,Stability of Plant-Derived Cannabinoid Compounds in AB Red,"stored at 21-25° C., 90 days",1.60 µg/mL
same,Stability of Plant-Derived Cannabinoid Compounds in AB Red,"stored at 21-25° C., 120 days",1.64 µg/mL
same,Stability of Plant-Derived Cannabinoid Compounds in AB Red,"stored at 21-25° C., 150 days",1.58 µg/mL
same,Stability of Plant-Derived Cannabinoid Compounds in AB Red,"stored at 21-25° C., 180 days",1.64 µg/mL
same,Stability of Plant-Derived Cannabinoid Compounds in AB Red,"stored at 21-25° C., 210 days",1.64 µg/mL
same,Stability of Plant-Derived Cannabinoid Compounds in AB Red,"stored at 21-25° C., 240 days",1.60 µg/mL
same,Stability of Plant-Derived Cannabinoid Compounds in AB Red,"stored at 21-25° C., 270 days",1.65 µg/mL
same,Stability of Plant-Derived Cannabinoid Compounds in AB Red,"stored at 21-25° C., 300 days",1.58 µg/mL
same,Stability of Plant-Derived Cannabinoid Compounds in AB Red,"stored at 21-25° C., 330 days",1.65 µg/mL
same,Stability of Plant-Derived Cannabinoid Compounds in AB Red,"stored at 21-25° C., 360 days",1.58 µg/mL
same,Stability of Plant-Derived Cannabinoid Compounds in AB Red,"stored at 21-25° C., 390 days",1.61 µg/mL
same,Stability of Plant-Derived Cannabinoid Compounds in AB Red,"stored at 21-25° C., 420 days",1.59 µg/mL
same,Stability of Plant-Derived Cannabinoid Compounds in AB Red,"stored at 21-25° C., 450 days",1.57 µg/mL
same,Stability of Plant-Derived Cannabinoid Compounds in AB Red,"stored at 21-25° C., 480 days",1.57 µg/mL
same,Stability of Plant-Derived Cannabinoid Compounds in AB Red,"stored at 21-25° C., 510 days",1.56 µg/mL
same,Stability of Plant-Derived Cannabinoid Compounds in AB Red,"stored at 21-25° C., 540 days",1.57 µg/mL
same,Stability of Plant-Derived Cannabinoid Compounds in AB Red,"stored at 21-25° C., 570 days",1.54 µg/mL
